The source of these data is ChEMBL document CHEMBL1201862, “PubChem BioAssay data set” (2004).

Among the test systems are MDA-MB-231; HOP-62; OVCAR-3; U-251; HCT-15; NCI-H460; SW-620; 786-0; SK-MEL-5; NCI-H23; PC-3; NCI/ADR-RES; SR; NCI-H226; SK-MEL-2; EKVX; SN12C; SF-268; UO-31; KM12.
Assay in all cases: NCI anticancer screen, dose series, 48 h

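Tested at 5 concentrations; 48 h exposure; 96-well plates; endpoints linearly interpolated, else capped at highest concentration. GI50 is the concentration that inhibits growth by half.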 Calls of active or inactive are those of the source. Rule as the data show it: active = GI50 up to about 1.1 µM and inactive = higher.

In the case of `CC1(C)Oc2ccc(Cl)cc2C12CC2`, the GI50 with MDA-MB-231 was 16.6 µM (inactive); in the assay on HOP-62, 18.2 µM (inactive); in the assay on OVCAR-3 it was 13.8 µM (inactive); with U-251, 15.3 µM (inactive); in the assay with HCT-15, 17.1 µM; with NCI-H460, 17.8 µM (inactive). In addition, the GI50 in the assay on SW-620 was 11.8 µM (inactive); with 786-0, 16.7 µM (inactive); in the assay with SK-MEL-5, 18 µM (inactive); with NCI-H23, 20.1 µM (inactive); in the assay with PC-3, 13.9 µM (inactive); with NCI/ADR-RES it was 18.4 µM (inactive). The GI50 was 18.1 µM (inactive) in the assay with SR; 13.6 µM (inactive) in the assay on NCI-H226; 16 µM (inactive) in the assay on SK-MEL-2; 10.8 µM (inactive) in the assay on EKVX; 18.8 µM (inactive) in the assay with SN12C; 16.6 µM (inactive) in the assay with SF-268. The GI50 was 16.9 µM (inactive) in the assay with UO-31 and 17.7 µM (inactive) with KM12.
`C1=CC(=[N+]2N=C(c3ccccc3)CC2c2ccccc2)C=CC1=C1SC(c2ccccc2)(c2ccccc2)c2ccccc21.[O-][Cl+3]([O-])([O-])[O-]` (stereo not given): the GI50 with MDA-MB-231 was > 100 µM (inactive); in the assay on HOP-62, > 100 µM (inactive); with OVCAR-3 it was > 100 µM (inactive); in the assay with U-251, > 100 µM (inactive); with HCT-15, greater than 100 µM; in the assay with NCI-H460 it was > 100 µM (inactive). The GI50 in the assay on SW-620, in the assay with 786-0, in the assay on SK-MEL-5, in the assay on NCI-H23, in the assay with PC-3 and in the assay on NCI/ADR-RES was > 100 µM (inactive) in each case. Moreover, the GI50 with SR, in the assay on NCI-H226, in the assay on SK-MEL-2, with EKVX, in the assay on SN12C and in the assay on SF-268 was > 100 µM (inactive) throughout. Moreover, the GI50 in the assay on UO-31 and with KM12 was > 100 µM (inactive) in each case.
For `C/N=c1\sc2c(n1C)C(=O)c1ccccc1C2=O`, the GI50 with MDA-MB-231 was 12.2 µM (inactive); in the assay with HOP-62 it was 1.76 µM (inactive); in the assay with OVCAR-3, 3.44 µM (inactive); in the assay on U-251, 2.55 µM (inactive); in the assay with HCT-15 it was 2.03 µM; in the assay with NCI-H460, 2.62 µM (inactive). Besides, the GI50 with SW-620 is 2.09 µM (inactive); with 786-0, 6.79 µM (inactive); in the assay on SK-MEL-5, 1.27 µM (inactive); in the assay on NCI-H23, 0.566 µM (active); in the assay on PC-3 it was 3.96 µM (inactive); in the assay on NCI/ADR-RES it was 3.95 µM (inactive). The GI50 with SR was 3.75 µM (inactive); in the assay with NCI-H226, 2.34 µM (inactive); with SK-MEL-2, 2.08 µM (inactive); in the assay on EKVX it was 10.7 µM (inactive); with SN12C it was 1.64 µM (inactive); in the assay with SF-268, 3.85 µM (inactive). For the same compound, the GI50 with UO-31 was 7.45 µM (inactive); in the assay with KM12 it was 3.37 µM (inactive).
As to `COc1cccc(NC(=O)CC(=O)Nc2cccc(OC)c2)c1`, the GI50 in the assay on MDA-MB-231 was > 100 µM (inactive); in the assay with HOP-62, > 100 µM (inactive); in the assay with OVCAR-3 it was > 100 µM (inactive); with U-251 it was > 100 µM (inactive); with HCT-15 it was greater than 100 µM; in the assay with NCI-H460, > 100 µM (inactive). Further, the GI50 in the assay with SW-620, with 786-0, in the assay with SK-MEL-5, with NCI-H23, in the assay on PC-3 and in the assay on NCI/ADR-RES was > 100 µM (inactive) in each case. Moreover, the GI50 in the assay with SR, in the assay on NCI-H226, in the assay with SK-MEL-2, in the assay on EKVX, in the assay on SN12C and in the assay with SF-268 was > 100 µM (inactive) throughout. The GI50 in the assay with UO-31 and in the assay on KM12 was > 100 µM (inactive) throughout.
